PubChem BioAssay (NCI)
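GI50 is the concentration that inhibits growth by half. TGI is the concentration that stops growth completely.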

How the values were obtained:
Experiment in all cases: NCI anticancer screen, dose series, 384-well format
MDA-MB-468 breast = test system: MDA-MB-468 breast
HS 578T breast = test system: HS 578T breast
UACC-62 melanoma = test system: UACC-62 melanoma
HL-60(TB) leukemia = test system: HL-60(TB) leukemia
KM12 colon = test system: KM12 colon
RXF 393 renal = test system: RXF 393 renal
OVCAR-4 ovarian = test system: OVCAR-4 ovarian
MCF7 breast = test system: MCF7 breast
NCI-H522 lung = test system: NCI-H522 lung
SN12C renal = test system: SN12C renal
SNB-75 CNS = test system: SNB-75 CNS
SF-295 CNS = test system: SF-295 CNS
BT-549 breast = test system: BT-549 breast
HCC-2998 colon = test system: HCC-2998 colon
OVCAR-5 ovarian = test system: OVCAR-5 ovarian
NCI-H460 NSCLC = test system: NCI-H460 NSCLC
SW-620 colon = test system: SW-620 colon
SK-MEL-28 melanoma = test system: SK-MEL-28 melanoma
MDA-MB-435 melanoma = test system: MDA-MB-435 melanoma
COLO 205 colon = test system: COLO 205 colon
HOP-92 NSCLC = test system: HOP-92 NSCLC
IGROV1 ovarian = test system: IGROV1 ovarian
NCI-H23 lung = test system: NCI-H23 lung
ACHN renal = test system: ACHN renal
SK-MEL-2 melanoma = test system: SK-MEL-2 melanoma
SK-OV-3 ovarian = test system: SK-OV-3 ovarian
786-0 renal = test system: 786-0 renal
MDA-MB-231 breast = test system: MDA-MB-231 breast

SMILES: CNC(=O)c1ccc2cc(C3(O)CCn4cncc43)ccc2c1 (stereo unspecified)
- GI50 (MDA-MB-468 breast): > 100 µM
- TGI (MDA-MB-468 breast): > 100 µM
- GI50 (HS 578T breast): > 100 µM
- TGI (HS 578T breast): > 100 µM
- GI50 (UACC-62 melanoma): > 100 µM
- TGI (UACC-62 melanoma): > 100 µM
- GI50 (HL-60(TB) leukemia): > 100 µM
- TGI (HL-60(TB) leukemia): > 100 µM
- GI50 (KM12 colon): > 100 µM
- TGI (KM12 colon): > 100 µM
- GI50 (RXF 393 renal): > 100 µM
- TGI (RXF 393 renal): > 100 µM
- GI50 (OVCAR-4 ovarian): > 100 µM
- TGI (OVCAR-4 ovarian): > 100 µM
- GI50 (MCF7 breast): > 100 µM
- TGI (MCF7 breast): > 100 µM
- GI50 (NCI-H522 lung): > 100 µM
- TGI (NCI-H522 lung): > 100 µM
- GI50 (SN12C renal): > 100 µM
- TGI (SN12C renal): > 100 µM
- GI50 (SNB-75 CNS): > 100 µM
- TGI (SNB-75 CNS): > 100 µM
- GI50 (SF-295 CNS): > 100 µM
- TGI (SF-295 CNS): > 100 µM
- GI50 (BT-549 breast): > 100 µM
- TGI (BT-549 breast): > 100 µM
- GI50 (HCC-2998 colon): > 100 µM
- TGI (HCC-2998 colon): > 100 µM
- GI50 (OVCAR-5 ovarian): > 100 µM
- TGI (OVCAR-5 ovarian): > 100 µM
- GI50 (NCI-H460 NSCLC): > 100 µM
- TGI (NCI-H460 NSCLC): > 100 µM
- GI50 (SW-620 colon): > 100 µM
- TGI (SW-620 colon): > 100 µM
- GI50 (SK-MEL-28 melanoma): > 100 µM
- TGI (SK-MEL-28 melanoma): > 100 µM
- GI50 (MDA-MB-435 melanoma): > 100 µM
- TGI (MDA-MB-435 melanoma): > 100 µM
- GI50 (COLO 205 colon): > 100 µM
- TGI (COLO 205 colon): > 100 µM
- GI50 (HOP-92 NSCLC): > 100 µM
- TGI (HOP-92 NSCLC): > 100 µM
- GI50 (IGROV1 ovarian): > 100 µM
- TGI (IGROV1 ovarian): > 100 µM
- GI50 (NCI-H23 lung): > 100 µM
- TGI (NCI-H23 lung): > 100 µM
- GI50 (ACHN renal): > 100 µM
- TGI (ACHN renal): > 100 µM
- GI50 (SK-MEL-2 melanoma): > 100 µM
- TGI (SK-MEL-2 melanoma): > 100 µM
- GI50 (SK-OV-3 ovarian): > 100 µM
- TGI (SK-OV-3 ovarian): > 100 µM
- GI50 (786-0 renal): > 100 µM
- TGI (786-0 renal): > 100 µM
- GI50 (MDA-MB-231 breast): > 100 µM
- TGI (MDA-MB-231 breast): > 100 µM
